Our source for the EC50 and Emax values is patent publication US8563746B2, “Cyclic benzimidazole derivatives useful as anti-diabetic agents” (Merck Sharp & Dohme Corp, priority 2008, dated 2013).

What is called EC50 is the concentration at which the effect is half-maximal. Usually Emax stands for the size of the effect at its maximum, as opposed to the concentration needed.

The target of one test is recombinant human AMPK complex 1 (containing α1β1γ1) (Homo sapiens, UniProt Q13131+Q9Y478). The test can be described thus: In vitro AMPK activation assay ([…]). Type of test: biochemical.
Chain of recombinant human AMPK complex 1 (containing α1β1γ1) (Q13131 whole entry): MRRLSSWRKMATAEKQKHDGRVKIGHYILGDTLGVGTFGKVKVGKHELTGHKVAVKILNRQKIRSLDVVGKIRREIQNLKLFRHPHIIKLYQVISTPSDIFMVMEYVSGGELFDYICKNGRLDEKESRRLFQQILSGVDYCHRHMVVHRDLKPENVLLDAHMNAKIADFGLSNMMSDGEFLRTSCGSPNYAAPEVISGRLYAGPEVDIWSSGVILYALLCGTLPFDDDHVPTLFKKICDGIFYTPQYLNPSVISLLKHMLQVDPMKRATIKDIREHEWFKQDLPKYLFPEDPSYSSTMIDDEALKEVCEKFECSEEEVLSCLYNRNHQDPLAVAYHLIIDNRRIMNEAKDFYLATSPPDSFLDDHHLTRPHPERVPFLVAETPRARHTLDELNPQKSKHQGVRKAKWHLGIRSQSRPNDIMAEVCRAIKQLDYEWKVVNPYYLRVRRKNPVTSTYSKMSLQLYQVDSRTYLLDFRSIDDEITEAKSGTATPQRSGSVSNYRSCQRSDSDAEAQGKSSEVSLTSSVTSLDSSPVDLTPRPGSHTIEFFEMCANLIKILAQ
Chain of recombinant human AMPK complex 1 (containing α1β1γ1) (Q9Y478 whole entry): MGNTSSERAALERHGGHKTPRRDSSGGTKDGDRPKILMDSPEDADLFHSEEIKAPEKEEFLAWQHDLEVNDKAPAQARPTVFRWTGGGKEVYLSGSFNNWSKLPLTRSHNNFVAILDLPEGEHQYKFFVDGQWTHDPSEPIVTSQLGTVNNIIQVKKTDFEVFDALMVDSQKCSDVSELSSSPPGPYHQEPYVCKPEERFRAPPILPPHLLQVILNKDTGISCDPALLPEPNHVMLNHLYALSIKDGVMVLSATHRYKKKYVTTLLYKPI
Chain of recombinant human AMPK complex 1 (containing α1β1γ1) (P54619 whole entry partner): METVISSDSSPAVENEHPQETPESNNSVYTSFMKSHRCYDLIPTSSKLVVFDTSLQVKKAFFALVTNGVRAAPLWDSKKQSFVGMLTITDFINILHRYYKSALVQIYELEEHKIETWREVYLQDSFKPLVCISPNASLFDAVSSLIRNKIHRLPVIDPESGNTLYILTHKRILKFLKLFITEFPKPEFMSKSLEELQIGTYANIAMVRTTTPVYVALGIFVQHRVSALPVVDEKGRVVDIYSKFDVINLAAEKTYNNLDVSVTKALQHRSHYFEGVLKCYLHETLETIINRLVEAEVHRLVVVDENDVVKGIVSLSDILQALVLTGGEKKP
Settings: not given
As for the experimental part:
The recombinant human AMPK complex 1 (containing α1β1γ1) was obtained from baculovirus expression system. Recombinant viruses were generated by cotransfection of AMPK/pBacPak9 clones with Baculogold baculovirus DNA (Pharmingen) in spodoptera frugiperda 21 cells according to the manufacturer's instructions. Each round of virus amplification was performed for 5 days in Grace's medium containing 10% serum. Virus that had been subjected to three rounds of amplification was used for all protein production procedures. To express the AMPK complex, sf21 cells were adapted to serum free medium (SF900 II, Invitrogen) by sequential dilution from serum containing stocks into SF900II medium and maintained in shaker flasks at 90 rpm at 27° C. The recombinant AMPK enzyme complex was produced by triple infection, one recombinant virus for each of the subunits, in sf21 cells under serum free conditions. Cells were infected in log phase, 1×10^6 cells/ml, at a multiplicity of infection of ˜5. Cells were harvested by centrifugation at 10,000×g for 15 minutes after 72 hours of infection with viruses. The insect cell pellet from 2 liters of culture was resuspended in 50 ml lysis buffer (20 mM Tris-HCl, 50 mM NaCl, 50 mM NaF, 30 mM Na PPi, 0.25 M sucrose, 10 mM ZnCl2, 2 mM DTT, 0.4 mg/ml digitonin) and subjected to two cycles of freeze-thaw lysis in a dry-ice ethanol bath. Insoluble material was removed by centrifugation at 10,000×g and the supernatant was fractionated with use of polyethylene glycol (PEG). The protein fraction precipitating between 2.5 and 6% PEG was used for further purification using a Blue-Sepharose step (Zhou et al, J. Clin. Invest. 108, 1167-1174, 2001).
The total in vitro AMPK activation assay volume is 50 μl in a 96-well plate. The reaction mixture contained 100 μM ATP (0.5 μCi ^33P-ATP per reaction), and 50 μM SAMS ([…]) in a buffer (20 mM HEPES, pH 7.0, 5 mM MgCl2, 0.01% Brij35). The reaction was initiated with addition of the enzyme. After 30-minute incubation at 30° C., the reaction was stopped by addition of 80 μl 1% H3PO4. Aliquots (100 μl) were transferred to 96-well MultiScreen plates (MAPHNOB50; Millipore Corp., Bedford, Mass., USA). The plate was washed three times with 1% H3PO4 followed by detection in a Top-count. The counts per minute from the basal activity (the reaction without activator) was subtracted from each well and the data were expressed as % maximum AMP activation followed by EC50 calculation.
Consider `O=C(O)CSc1nc2cc(C#Cc3ccccc3)c(Cl)cc2[nH]1` [Example 1, (6-Chloro-5-phenylethynyl-1H-benzoimidazol-2-ylsulfanyl)-acetic acid], for which the half-maximal effective concentration (EC50) stood at 259 nM.

Consider `O=C(O)CSc1nc2cc(-c3ccc(-c4ccccc4)cc3)c(Cl)cc2[nH]1` [Example 2, (5-Biphenyl-4-yl-6-chloro-1H-benzoimidazol-2-ylsulfanyl)-acetic acid], for which the EC50 came to 90 nM.

Still in this test, the particulars now being: recombinant human AMPK complex 1 (α1β1γ1); basal activity subtracted, expressed as % maximum AMP activation.
Turning to `O=C(O)CSc1nc2cc(-c3ccc4c(c3)OCO4)c(Cl)cc2[nH]1` [Example 3, (5-1,3-benzo-dioxol-5-yl-6-chloro-1H-benzimidazol-2-ylsulfanyl)-acetic acid], the Emax was above 40%.

For `O=C(O)CSc1nc2cc(-c3cccc(F)c3)c(Cl)cc2[nH]1` [Example 4, [6-chloro-5-(3-fluoro-phenyl)-1H-benzimidazol-2-ylsulfanyl]-acetic acid], the maximum response (Emax) is above 40%.

On to `O=C(O)CSc1nc2cc(-c3cc(F)cc(F)c3)c(Cl)cc2[nH]1` [Example 5, [6-chloro-5-(3,5-difluoro-phenyl)-1H-benzimidazol-2-ylsulfanyl]-acetic acid], for which the maximum response (Emax) is above 40%.

On to `CC(=O)NCc1ccc(-c2cc3nc(SCC(=O)O)[nH]c3cc2Cl)cc1` [Example 7, 2-(6-(4-(acetamido-methyl)phenyl)-5-chloro-1H-benzo[d]-imidazol-2-ylthio)-acetic acid], for which the maximal effect (Emax) is above 40%.

On to `O=C(O)CSc1nc2cc(-c3ccc(O)cc3)c(Cl)cc2[nH]1` [Example 8, 2-(6-chloro-5-(4-hydroxyphenyl)-1H-benzo[d]imidazol-2-ylthio)acetic acid], for which the maximal response (Emax) is above 40%.

As for `O=C(O)CSc1nc2cc(-c3ccc(CO)cc3)c(Cl)cc2[nH]1` [Example 9, 2-(6-chloro-5-(4-(hydroxymethyl)phenyl)-1H-benzo[d]-imidazol-2-ylthio)-acetic acid], the Emax was above 40%.

Regarding `Nc1ccccc1C#Cc1cc2nc(SCC(=O)O)[nH]c2cc1Cl` [Example 10, 2-(5-((2-amino-phenyl)ethynyl)-6-chloro-1H-benzo[d]-imidazol-2-ylthio)-acetic acid], the Emax is above 40%.

Take `O=C(O)CSc1nc2cc(-c3ccc4cn[nH]c4c3)c(Cl)cc2[nH]1` [Example 11, 2-(6-chloro-5-(1H-indazol-6-yl)-1H-benzo[d]imidazol-2-ylthio)acetic acid]: the maximal effect (Emax) is above 40%.

On to `COc1ccc(-c2cc3nc(SCC(=O)O)[nH]c3cc2Cl)cn1` [Example 12, 2-(6-chloro-5-(6-methoxypyridin-3-yl)-1H-benzo[d]imidazol-2-ylthio)acetic acid], for which the Emax was above 40%.

In the case of `O=C(O)CSc1nc2cc(-c3cc4ccccc4o3)c(Cl)cc2[nH]1` [Example 13, 2-(5-(benzofuran-2-yl)-6-chloro-1H-benzo[d]imidazol-2-ylthio)acetic acid], the Emax is above 40%.

`O=C(O)CSc1nc2cc(-c3csc4ccccc34)c(Cl)cc2[nH]1` [Example 14, 2-(5-(benzo[b]-thiophen-3-yl)-6-chloro-1H-benzo[d]-imidazol-2-ylthio)-acetic acid]: the Emax was above 40%.

Take `O=C(O)CSc1nc2cc(-c3ccc(-n4cccn4)cc3)c(Cl)cc2[nH]1` [Example 15, 2-(5-(4-(1H-pyrazol-1-yl)phenyl)-6-chloro-1H-benzo[d]imidazol-2-ylthio)acetic acid]: the Emax was above 40%.

With `O=C(O)CSc1nc2cc(-c3ccc(-c4ccn[nH]4)cc3)c(Cl)cc2[nH]1` [Example 16, 2-(5-(4-(1H-pyrazol-5-yl)phenyl)-6-chloro-1H-benzo[d]imidazol-2-ylthio)acetic acid], the maximal response (Emax) is above 40%.

As for `CC(=O)Nc1cccc(C#Cc2cc3nc(SCC(=O)O)[nH]c3cc2Cl)c1` [Example 17, 2-(5-((3-acetamido-phenyl)ethynyl)-6-chloro-1H-benzo[d]-imidazol-2-ylthio)-acetic acid], the maximal response (Emax) was above 40%.

Regarding `CS(=O)(=O)c1ccc(C#Cc2cc3nc(SCC(=O)O)[nH]c3cc2Cl)cc1` [Example 19, [6-chloro-5-(4-methanesulfonyl-phenyl-ethynyl)-1H-benzo-imidazol-2-yl-sulfanyl]-acetic acid], the Emax was above 40%.

Turning to `N#Cc1ccccc1C#Cc1cc2nc(SCC(=O)O)[nH]c2cc1Cl` [Example 20, [6-chloro-5-(2-cyano-phenyl-ethynyl)-1H-benzo-imidazol-2-ylsulfanyl]-acetic acid], the Emax is above 40%.

Consider `O=C(O)CSc1nc2cc(C#CC3CCNCC3)c(Cl)cc2[nH]1` [Example 21, (6-chloro-5-piperidin-4-ylethynyl-1H-benzoimidazol-2-ylsulfanyl)-acetic acid], for which the maximal effect (Emax) is above 40%.

In the case of `O=C(O)CSc1nc2cc(C#Cc3ccc(F)cc3)c(Cl)cc2[nH]1` [Example 22], the Emax was above 40%.

Turning to `O=C(O)CSc1nc2cc(C#Cc3cccc(F)c3)c(Cl)cc2[nH]1` [Example 23], the maximal effect (Emax) is above 40%.

With `O=C(O)CSc1nc2cc(C#Cc3ccc(F)cc3F)c(Cl)cc2[nH]1` [Example 24, [6-chloro-5-(2,4-difluoro-phenyl-ethynyl)-1H-benzoimidazol-2-ylsulfanyl]-acetic acid], the maximum response (Emax) is above 40%.

Consider `O=C(O)CSc1nc2cc(C#Cc3ccncc3)c(Cl)cc2[nH]1` [Example 25, (6-chloro-5-pyridin-4-yl-ethynyl-1H-benzoimidazol-2-ylsulfanyl)-acetic acid], for which the Emax is above 40%.

`O=C(O)CSc1nc2cc(C#CCOc3ccccc3)c(Cl)cc2[nH]1` [Example 26, [6-chloro-5-(3-phenoxy-prop-1-ynyl)-1H-benzo-imidazol-2-yl-sulfanyl]-acetic acid]: the maximal effect (Emax) is above 40%.

`O=C(O)CSc1nc2cc(C#Cc3ccccc3F)c(Cl)cc2[nH]1` [Example 27]: the Emax was above 40%.

As to `N#Cc1ccc(C#Cc2cc3nc(SCC(=O)O)[nH]c3cc2Cl)cc1` [Example 28, [6-chloro-5-(4-cyano-phenyl-elhynyl)-1H-benzoimidazol-2-ylsulfanyl]-acetic acid], the maximal effect (Emax) was above 40%.

`O=C(O)CSc1nc2cc(C#Cc3cccc(O)c3)c(Cl)cc2[nH]1` [Example 29, [6-chloro-5-(3-hydroxyphenyl-ethynyl)-1H-benzoimidazol-2-ylsulfanyl]-acetic acid]: the maximum response (Emax) was above 40%.

Turning to `Cc1ccccc1C#Cc1cc2nc(SCC(=O)O)[nH]c2cc1Cl` [Example 30, (6-chloro-5-o-tolylethynyl-1H-benzo-imidazol-2-ylsulfanyl)-acetic acid], the maximal effect (Emax) is above 40%.

Turning to `Cc1cccc(C#Cc2cc3nc(SCC(=O)O)[nH]c3cc2Cl)c1` [Example 31, (6-chloro-5-m-tolylethynyl-1H-benzoimidazol-2-ylsulfanyl)-acetic acid], the Emax is above 40%.

As for `COc1cccc(C#Cc2cc3nc(SCC(=O)O)[nH]c3cc2Cl)c1` [Example 32, [6-chloro-5-(3-methoxy-phenyl-ethynyl)-1H-benzoimidazol-2-ylsulfanyl]-acetic acid], the maximal effect (Emax) is above 40%.

With `O=C(O)CSc1nc2cc(C#Cc3ccc(Oc4ccccc4)cc3)c(Cl)cc2[nH]1` [Example 33, [6-Chloro-5-(4-phenoxy-phenylethynyl)-1H-benzoimidazol-2-ylsulfanyl]-acetic acid], the maximal effect (Emax) is above 40%.

`O=C(O)CSc1nc2cc(C#Cc3ccc(-c4ccccc4)cc3)c(Cl)cc2[nH]1` [Example 34, (5-biphenyl-4-ylethynyl-6-chloro-1H-benzoimidazol-2-ylsulfanyl)-acetic acid]: the Emax is above 40%.

As for `O=C(O)CSc1nc2cc(C#CC3CCCC3)c(Cl)cc2[nH]1` [Example 35, (6-chloro-5-cyclo-pentylethynyl-1H-benzo-imidazol-2-yl-sulfanyl)-acetic acid], the maximal effect (Emax) is above 40%.

Staying with this test, now noted: recombinant human AMPK complex 1 (α1β1γ1); read-out: EC50.
Regarding `O=C(O)CSc1nc2cc(-c3ccc(-c4ccccc4O)cc3)c(Cl)cc2[nH]1` [Example 6, 2-(6-chloro-5-(2′-hydroxybiphenyl-4-yl)-1H-benzo[d]imidazol-2-ylthio)acetic acid], the EC50 amounted to 13 nM.

`O=C(O)CSc1nc2cc(C#Cc3ccc(CO)cc3)c(Cl)cc2[nH]1` [Example 18, [6-Chloro-5-(4-hydroxymethyl-phenylethynyl)-1H-benzoimidazol-2-ylsulfanyl]-acetic acid]: the 50% effective concentration (EC50) is 248 nM.
